Assay results as given in patent US9149040B2, “Synergistic pesticidal compositions and related methods” (Dow AgroSciences LLC, priority 2013, dated 2015).

Test system: diamondback moth, Plutella xylostella
Assay: Diamondback moth bioassay on track-sprayed cabbage plants/leaf discs, percent control
Assay type: in vivo
Protocol: Three second-instar diamondback moth, Plutella xylostella, were infested onto each leaf disc. […] The “Colby's Expected Action” was calculated using Colby's equation as discussed previously.

| Structure (SMILES) | % Control Three Days After Treatment (compound I alone, dose rate 0.000625 weight %) [%] | % Control Three Days After Treatment (compound I alone, dose rate 0.000625 weight %, listed as compound I) | % Control Three Days After Treatment (compound I alone, dose rate 0.0025 weight %, second-instar larvae, 400 L/Ha spray) | % Control Three Days After Treatment (flonicamid alone, dose rate 0.000039 weight %) [%] | % Control Three Days After Treatment (flonicamid alone, dose rate 0.000156 weight %) [%] |
| --- | --- | --- | --- | --- | --- |
| CCN(C(=O)CCSCCC(F)(F)F)c1cn(-c2cccnc2)nc1Cl [Compound I, N-(3-chloro-1-(pyridin-3-yl)-1H-pyrazol-4-yl)-N-ethyl-3-((3,3,3-trifluoropropyl)thio)propanamide] | 0 | no control | no control | – | – |
| N#CCNC(=O)c1cnccc1C(F)(F)F [Flonicamid, N-(cyanomethyl)-4-(trifluoromethyl)-3-pyridinecarboxamide, reference compound] | – | – | – | 4.17 | 4.17 |
